From PMC11378298 (ACS Chemical Neuroscience, 2024)
Counter-ions that a name gives are not always drawn.

Test system: not listed separately
Experiment: Cytotoxicity in BV-2 cells (PrestoBlue)
Conditions: mouse, BV-2 microglial cells
Experimental: (§1) The compounds were tested at 5 concentrations (0.1, 1, 10, 50, and 100 μM).
Mouse microglial cells (BV-2) were a generous gift from Professor Bozena Kaminska-Kaczmarek of the Laboratory of Molecular Neurobiology, Neurobiology Center, Nencki Institute of Experimental Biology, Polish Academy of Sciences, Warsaw, Poland. Cells were cultured in Dulbecco’s modified Eagle’s Medium-high glucose (DMEM, Glutamax Thermo Fisher) supplemented with 10% heat-inactivated fetal bovine serum (Thermo Fisher), 100 IU/mL penicillin (Merck) and 100 μg/mL streptomycin (Merck). Cells were cultured in flasks (area 175 cm^2, Nunc), and incubated at 37 °C, 5% CO2. To evaluate the level of NO, IL-6, and TNF-α and the effectiveness of the compounds tested, BV-2 microglia cells were cultured in a 96-well culture plate (5 × 10^4 cells per well, Falcon). For the measurement of cell viability and cell membrane damage, cells were placed in a 96-well culture plate (2 × 10^4 cells per well, Falcon). Before the tests, cells were grown for 24 h in the incubator (37 °C, 5% CO2).
(§2) Cell viability was evaluated using the PrestoBlue reagent (ThermoFisher), according to the manufacturer’s procedures.[87] Following 24 h of incubation with the tested molecule, PrestoBlue reagent was added to a microplate well in an amount equal to one-tenth of the remaining medium volume. The resulting mixture was incubated for 15 min at 37 °C, and the fluorescence intensity (EX 530 nm; EM 580 nm) was measured in the plate reader POLARstar Omega, (BMG Labtech).

SMILES	IC50 at 24 h [µM]
O=C(Nc1cc(-c2ccc(-c3ncon3)nc2)ccn1)C1CC1 [Compound 34, N-(6-(1,2,4-Oxadiazol-3-yl)-[3,4′-bipyridin]-2′-yl)cyclopropanecarboxamide]	39.2 ± 5.2

Target: GSK-3β (Homo sapiens, UniProt P49841)
Experiment: biochemical
Conditions: not given
Experimental: We evaluated the pharmacological properties of the compounds in vitro against GSK-3β using the GSK-3β Kinase Enzyme System followed by ADP-Glo bioluminescent assay.[50] The principle of the assay is to determine the amount of ADP formed from ATP in the kinase reaction. […] Additionally, compounds 11 and 36 in complex with GSK-3β were analyzed by the proteins’ melting temperature determination using Thermal Shift Assay (see Figure S1 in the SI).
The inhibitory activities of the tested compounds against the GSK-3β human recombinant kinase were measured using Promega’s GSK-3β Kinase Enzyme System (Promega; Madison, WI, USA), according to the provided manufacturer’s instruction, using the low-volume white polystyrene 384-well plates. The ADP-Glo Assay (Promega; Madison, WI, USA) was used for bioluminescent detection of the kinase activity. Tested compounds were prepared as 1 mM stock solutions in DMSO and diluted with the Kinase Assay Buffer before use (40 mM Tris, pH 7.5, enriched with 50 μM dithiothreitol; DTT) to obtain the desired compounds’ concentrations. The kinase enzyme, GSK-3β-substrate (derived from human muscle glycogen synthase 1), and ATP were also diluted in the assay buffer before use. At first, GSK-3β (10 ng per well) was incubated with the tested sample (10 μM in well) for 5 min. In the case of blank wells, the DMSO solution (1% in well) was used instead of the target samples’ solutions. After the incubation period, ATP (25 μM in well) and GSK-3β-substrate (0.2 μg/μL in well) were added to start the enzymatic reaction. The reaction mixture was kept at room temperature for 1 h, followed by the addition of the ADP-Glo reagent, to terminate the kinase reaction and deplete any remaining ATP. After the following 40 min—a second reagent (Kinase Detection Reagent) was applied to convert the obtained ADP to ATP and to generate light from the newly synthesized ATP using a luciferase/luciferin reaction. The mixture was kept for another 30 min at room temperature, then the luminescence was measured. Based on equation 100 – (S/B) × 100 (where S and B were the respective enzyme activities with and without the tested sample, respectively) the percent of inhibition of GSK-3β for each compound was calculated. […] Calculations were made using nonlinear regression (GraphPad Prism 9; GraphPad Software, San Diego, CA, USA) by plotting the residual enzyme activities against the applied inhibitor concentration. […] Each data point was collected in triplicate.

Sequence of GSK-3β (P49841 whole entry): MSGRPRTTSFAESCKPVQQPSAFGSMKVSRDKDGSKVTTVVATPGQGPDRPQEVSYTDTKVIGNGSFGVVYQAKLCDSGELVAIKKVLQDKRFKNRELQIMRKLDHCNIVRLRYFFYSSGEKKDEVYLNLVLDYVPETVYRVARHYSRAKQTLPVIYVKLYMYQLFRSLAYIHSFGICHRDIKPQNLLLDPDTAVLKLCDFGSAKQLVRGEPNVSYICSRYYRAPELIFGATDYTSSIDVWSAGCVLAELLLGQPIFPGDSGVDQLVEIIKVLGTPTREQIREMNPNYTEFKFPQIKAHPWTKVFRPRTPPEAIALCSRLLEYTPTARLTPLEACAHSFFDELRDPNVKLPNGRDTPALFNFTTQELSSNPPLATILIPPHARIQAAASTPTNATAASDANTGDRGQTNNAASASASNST

SMILES	IC50 [µM]
O=C(Nc1cc(C2=CCN(C[C@@H]3CCCN3)C2)ccn1)C1CC1 [(S)-15, (S)-N-(4-(1-(Pyrrolidin-2-ylmethyl)-2,5-dihydro-1H-pyrrol-3-yl)pyridin-2-yl)cyclopropanecarboxamide Hydrochloride]	11.3 ± 1.12
CC(=O)N1CC=C(c2ccnc(NC(=O)C3CC3)c2)C1 [Compound 10, N-(4-(1-Acetyl-2,5-dihydro-1H-pyrrol-3-yl)pyridin-2-yl)cyclopropanecarboxamide]	0.599 ± 0.011
NCCC(=O)N1CC=C(c2ccnc(NC(=O)C3CC3)c2)C1 [Compound 12, N-(4-(1-(3-Aminopropanoyl)-2,5-dihydro-1H-pyrrol-3-yl)pyridin-2-yl)cyclopropanecarboxamide Hydrochloride]	1.36 ± 0.11
NCCCC(=O)N1CC=C(c2ccnc(NC(=O)C3CC3)c2)C1 [Compound 13, N-(4-(1-(4-Aminobutanoyl)-2,5-dihydro-1H-pyrrol-3-yl)pyridin-2-yl)cyclopropanecarboxamide Hydrochloride]	5.49 ± 0.363
O=C(Nc1cc(C2=CCN(C(=O)[C@@H]3CCCN3)C2)ccn1)C1CC1 [Compound 14, N-(4-(1-Prolyl-2,5-dihydro-1H-pyrrol-3-yl)pyridin-2-yl)cyclopropanecarboxamide]	7.72 ± 0.543
CS(=O)(=O)N1CC=C(c2ccnc(NC(=O)C3CC3)c2)C1 [Compound 16, N-(4-(1-(Methylsulfonyl)-2,5-dihydro-1H-pyrrol-3-yl)pyridin-2-yl)cyclopropanecarboxamide]	6.2 ± 0.163
CCCS(=O)(=O)N1CC=C(c2ccnc(NC(=O)C3CC3)c2)C1 [Compound 17, N-(4-(1-(Propylsulfonyl)-2,5-dihydro-1H-pyrrol-3-yl)pyridin-2-yl)cyclopropanecarboxamide]	9.27 ± 0.467
O=C(Nc1cc(C2=CCN(S(=O)(=O)C3CCCC3)C2)ccn1)C1CC1 [Compound 18, N-(4-(1-(Cyclopentylsulfonyl)-2,5-dihydro-1H-pyrrol-3-yl)pyridin-2-yl)cyclopropanecarboxamide]	3.25 ± 0.083
NCCS(=O)(=O)N1CC=C(c2ccnc(NC(=O)C3CC3)c2)C1 [Compound 19, N-(4-(1-((2-Aminoethyl)sulfonyl)-2,5-dihydro-1H-pyrrol-3-yl)pyridin-2-yl)cyclopropanecarboxamide Hydrochloride]	1.37 ± 0.044
NCCCS(=O)(=O)N1CC=C(c2ccnc(NC(=O)C3CC3)c2)C1 [Compound 20, N-(4-(1-((3-Aminopropyl)sulfonyl)-2,5-dihydro-1H-pyrrol-3-yl)pyridin-2-yl)cyclopropanecarboxamide Hydrochloride]	9.99 ± 0.406
N#Cc1ccc(-c2ccnc(NC(=O)C3CC3)c2)cc1 [Compound 22, N-(4-(4-Cyanophenyl)pyridin-2-yl)cyclopropanecarboxamide]	1.13 ± 0.037
N#Cc1cccc(-c2ccnc(NC(=O)C3CC3)c2)c1 [Compound 23, N-(4-(3-Cyanophenyl)pyridin-2-yl)cyclopropanecarboxamide]	0.952 ± 0.021
N#Cc1ccc(-c2ccnc(NC(=O)C3CC3)c2)cn1 [Compound 24, N-(6-Cyano-[3,4′-bipyridin]-2′-yl)cyclopropanecarboxamide]	0.212 ± 0.007
N#Cc1ccc(-c2ccnc(NC(=O)C3CC3)c2)s1 [Compound 26, N-(4-(5-Cyanothiophen-2-yl)pyridin-2-yl)cyclopropanecarboxamide]	0.146 ± 0.005
O=C(Nc1cc(-c2ccc(-c3ncon3)cc2)ccn1)C1CC1 [Compound 32, N-(4-(4-(1,2,4-Oxadiazol-3-yl)phenyl)pyridin-2-yl)cyclopropanecarboxamide]	0.257 ± 0.005
O=C(Nc1cc(-c2cccc(-c3ncon3)c2)ccn1)C1CC1 [Compound 33, N-(4-(3-(1,2,4-Oxadiazol-3-yl)phenyl)pyridin-2-yl)cyclopropanecarboxamide]	0.898 ± 0.032
O=C(Nc1cc(-c2ccc(-c3ncon3)nc2)ccn1)C1CC1 [Compound 34, N-(6-(1,2,4-Oxadiazol-3-yl)-[3,4′-bipyridin]-2′-yl)cyclopropanecarboxamide]	0.185 ± 0.003
O=C(Nc1cc(-c2ccnc(-c3ncon3)c2)ccn1)C1CC1 [Compound 35, N-(2′-(1,2,4-Oxadiazol-3-yl)-[4,4′-bipyridin]-2-yl)cyclopropanecarboxamide]	0.809 ± 0.028
O=C(Nc1cc(-c2ccc(-c3ccccc3)s2)ccn1)C1CC1 [Compound 37, N-(4-(5-Phenylthiophen-2-yl)pyridin-2-yl)cyclopropanecarboxamide]	5.22 ± 0.301

Same assay, conditions: read-out: Percent of enzyme inhibition at 10 μM of inhibitor concentration

SMILES	inhibition at 10 µM [%]
O=C(Nc1cc(C2=CCN(C[C@H]3CCCN3)C2)ccn1)C1CC1 [(R)-15, (R)-N-(4-(1-(Pyrrolidin-2-ylmethyl)-2,5-dihydro-1H-pyrrol-3-yl)pyridin-2-yl)cyclopropanecarboxamide hydrochloride]	17.8 ± 1.7
N#Cc1cc(-c2ccnc(NC(=O)C3CC3)c2)ccn1 [Compound 25, N-(2′-Cyano-[4,4′-bipyridin]-2-yl)cyclopropanecarboxamide]	34.4 ± 2.8

Test system: HT-22 cells
Experiment: Cytotoxicity in HT-22 cells (PrestoBlue)
Conditions: whole range of concentrations 0.1–100 μM
Experimental: as §1
(§3) Mouse Hippocampal Neuronal Cell Line (HT-22) was a generous gift from Dr Bartosz Pomierny of the Department of Biochemical Toxicology, Jagiellonian University Medical College, Krakow, Poland. Cells were cultured in Dulbecco’s modified Eagle’s Medium—high glucose (DMEM, Glutamax Thermo Fisher) supplemented with 10% heat-inactivated fetal bovine serum (Thermo Fisher), 100 IU/mL penicillin (Merck) and 100 μg/mL streptomycin (Merck). Cells were cultured in flasks (area 175 cm^2, Nunc), and incubated at 37 °C, 5% CO2. For the measurement of cell viability and neuroprotective effect against okadaic acid cells were placed in a 96-well culture plate (2 × 10^4 cells per well, Falcon). Before the tests, cells were grown for 24 h in the incubator (37 °C, 5% CO2).
as §2

SMILES	cell viability in HT-22 cells
O=C(Nc1cc(-c2ccc(-c3ncon3)nc2)ccn1)C1CC1 [Compound 34, N-(6-(1,2,4-Oxadiazol-3-yl)-[3,4′-bipyridin]-2′-yl)cyclopropanecarboxamide]	No significant decrease in cell viability

Test system: not listed separately
Experiment: Cytotoxicity in HT-22 cells (PrestoBlue)
Conditions: mouse, HT-22 hippocampal neuronal cells
Experimental: as §1, §3, §2

SMILES	IC50 at 24 h [µM]
O=C(Nc1cc(-c2ccc(-c3ncon3)nc2)ccn1)C1CC1 [Compound 34, N-(6-(1,2,4-Oxadiazol-3-yl)-[3,4′-bipyridin]-2′-yl)cyclopropanecarboxamide]	> 100

Test system: BV-2 cell line
Experiment: NO release in LPS-treated BV-2 cells (DAN fluorometric assay)
Format: cell-based, mouse
Conditions: compound 0.1, 1, 10 μM; LPS 100 ng/mL
Experimental: Cell viability was determined by Presto Blue assay after 24 h. (B) Effect of compounds 11, 34, and 36 (0.1, 1, 10 μM) on NO-release (%) in LPS-treated (100 ng/mL) BV-2 cell line. NO-release was measured using a fluorometric assay with 2,3-diaminonaphthalene (DAN). (C, D) Effects of compounds 11 and 36 (0.1, 1, 10 μM) on IL-6 and TNF-α release in LPS-treated (100 ng/mL) BV-2 cell line. The IL-6 and TNF-α levels were measured using LANCE Ultra TR-FRET Detection Kit (PerkinElmer). Statistical analysis was performed using GraphPad Prism 9.0.0. All values are expressed as mean with SD. Differences among groups were evaluated by one-way ANOVA followed by posthoc analysis (Dunnett’s multiple comparison tests) vs. control group (LPS on BV-2 cells and okadaic acid on HT-22 cells) and were considered statistically significant if p < 0.05 (*p < 0.05, **p < 0.01, ***p < 0.001, and ****p < 0.0001).
An important role in the pathogenesis of AD has been attributed to neuroinflammation resulting from the activation of astrocytes and microglial cells.[55] These processes lead to increased production of proinflammatory cytokines such as TNF-α or IL-6 that activate processes, e.g., tau hyperphosphorylation, causing injury and cell death.[56] A standard model of neuroinflammation is based on lipopolysaccharide-stimulated BV-2 microglial cells. In this study, we used this model to evaluate the anti-inflammatory properties of compounds 11, 34, and 36.[57] Our evaluation focused on monitoring the levels of key inflammatory markers, including nitric oxide (NO, Figure 6B) and cytokines, TNF-α and IL-6 (Figure 6C,D).
The cells were pretreated with tested compounds for 1 h. […]
The NO level in the culture supernatants was measured using 2,3-diaminonaphthalene (DAN) reagent according to the method of Nussler et al.[88] After 15 min of incubation at room temperature, the fluorescence intensity (EX 360; EM 440 nm) was measured using a microplate reader POLARstar Omega, (BMG Labtech). The values of nitric oxide were calculated as a percentage of control (maximal response of LPS).

SMILES	impact on NO release
O=C(Nc1cc(-c2ccc(-c3ncon3)nc2)ccn1)C1CC1 [Compound 34, N-(6-(1,2,4-Oxadiazol-3-yl)-[3,4′-bipyridin]-2′-yl)cyclopropanecarboxamide]	did not show any impact
